In test [1] the test system is Puccinia triticina. As to the kind of experiment: Wheat brown rust (PUCCRT) disease control on wheat seedlings. The class given is in vivo. Details: key to PUCCRT 3DC, HV activity at 100 ppm (% control rating) / PUCCRT disease control, 3DC / PUCCRT 1DP disease control rating, HV activity / PUCCRT 3DC disease control rating, HV activity / PUCCRT 3DC, LV activity at 125.1 g/H (% Control rating) / PUCCRT 1DP, LV activity at 125.1 g/H (% Control rating) / PUCCRT 3DC disease control rating, LV activity at 125.1 g/H / PUCCRT 1DP disease control rating, LV activity at 125.1 g/H / PUCCRT 3DC disease control rating, HV activity at 100 ppm / PUCCRT 1DP disease control rating, HV activity at 100 ppm / HV activity at 100 ppm PUCCRT 3DC (disease control rating) / LV activity at 125.1 g/H PUCCRT 1DP (disease control rating) / LV activity at 125.1 g/H PUCCRT 3DC (disease control rating): A: > 80; B: ≤ 80; C: Not Tested; D: No Activity Observed in the Reported Assay. The settings on record: for PUCCRT 1DP, LV activity at 125.1 g/H (% Control rating) / PUCCRT 3DC, LV activity at 125.1 g/H (% Control rating) / LV activity at 125.1 g/H PUCCRT 1DP (disease control rating) / LV activity at 125.1 g/H PUCCRT 3DC (disease control rating): low volume application; for PUCCRT 1DP disease control rating, HV activity at 100 ppm / PUCCRT 3DC disease control rating, HV activity at 100 ppm: high volume application; for PUCCRT 1DP disease control rating, HV activity at 100 ppm: 1 day protectant; for PUCCRT 3DC disease control rating, HV activity at 100 ppm: 3 day curative; for PUCCRT 1DP disease control rating, HV activity / PUCCRT 3DC disease control rating, HV activity: HV application at 100 ppm.

In test [2] the test system is Zymoseptoria tritici. In words: Leaf blotch of wheat (SEPTTR) disease control on wheat seedlings. The settings on record: for SEPTTR 1DP, LV activity at 125.1 g/H (% Control rating) / SEPTTR 3DC, LV activity at 125.1 g/H (% Control rating) / LV activity at 125.1 g/H SEPTTR 1DP (disease control rating) / LV activity at 125.1 g/H SEPTTR 3DC (disease control rating): low volume application; for SEPTTR 1DP disease control rating, HV activity at 100 ppm / SEPTTR 3DC disease control rating, HV activity at 100 ppm: high volume application; for SEPTTR 1DP disease control rating, HV activity at 100 ppm: 1 day protectant; for SEPTTR 3DC disease control rating, HV activity at 100 ppm: 3 day curative; for SEPTTR 1DP disease control rating, HV activity / SEPTTR 3DC disease control rating, HV activity: HV application at 100 ppm. Also on record: key to SEPTTR 1DP, HV activity at 100 ppm (% control rating) / SEPTTR 3DC, HV activity at 100 ppm (% control rating) / SEPTTR disease control, 1DP / SEPTTR disease control, 3DC / SEPTTR 1DP disease control rating, HV activity / SEPTTR 3DC disease control rating, HV activity / SEPTTR 3DC, LV activity at 125.1 g/H (% Control rating) / SEPTTR 1DP, LV activity at 125.1 g/H (% Control rating) / SEPTTR 1DP disease control rating, LV activity at 125.1 g/H / SEPTTR 3DC disease control rating, LV activity at 125.1 g/H / SEPTTR 3DC disease control rating, HV activity at 100 ppm / SEPTTR 1DP disease control rating, HV activity at 100 ppm / HV activity at 100 ppm SEPTTR 3DC (disease control rating) / HV activity at 100 ppm SEPTTR 1DP (disease control rating) / LV activity at 125.1 g/H SEPTTR 1DP (disease control rating) / LV activity at 125.1 g/H SEPTTR 3DC (disease control rating): A: > 80; B: ≤ 80; C: Not Tested; D: No Activity Observed in the Reported Assay. The class given is in vivo.

Where [3] appears, read: 1 Day Protectant, wheat brown rust.
Setting [4] is: 3 Day Curative, wheat brown rust.
The mark [5] stands for this setting: 1 Day Protectant, wheat leaf blotch.
Setting [6] is: 3 Day Curative, wheat leaf blotch.

For the compound `COc1ccnc(C(=O)NC(C)C(=O)OC(C)COCC2CC2)c1OC(C)=O` (stereo not shown) [Cmpd 529], in test [1] (1 Day Protectant), the “PUCCRT 1DP, LV activity at 125.1 g/H (% Control rating)” value is recorded as “D”. In addition, the “PUCCRT 3DC, LV activity at 125.1 g/H (% Control rating)” value in test [1] (3 Day Curative) is recorded as “D”. Also, in test [2] (1 Day Protectant), the “SEPTTR 1DP, LV activity at 125.1 g/H (% Control rating)” value is recorded as “B (≤ 80)”. In test [2] (3 Day Curative), the “SEPTTR 3DC, LV activity at 125.1 g/H (% Control rating)” value was “B (≤ 80)”.

Take `COc1ccnc(C(=O)N[C@@H](C)C(=O)O[C@@H](C)[C@@H](CC(C)C)Oc2ccc(C)cc2Cl)c1O` [Cmpd 1051]: the “HV activity at 100 ppm PUCCRT 1DP (disease control rating)” value in test [1] (HV application, 100 ppm, 1 Day Protectant, wheat brown rust) is “A (> 80)”. Moreover, the “HV activity at 100 ppm PUCCRT 3DC (disease control rating)” value in test [1] (HV application, 100 ppm, 3 Day Curative, wheat brown rust) is “B (≤ 80)”. For the same compound, in test [2] (HV application, 100 ppm, 1 Day Protectant, wheat leaf blotch), the “HV activity at 100 ppm SEPTTR 1DP (disease control rating)” value is reported as “B (≤ 80)”. Besides, the “HV activity at 100 ppm SEPTTR 3DC (disease control rating)” value in test [2] (HV application, 100 ppm, 3 Day Curative, wheat leaf blotch) is listed as “D”.

Turning to `COCC(OC(=O)C(C)NC(=O)c1nccc(OC)c1OCOC(C)=O)C(Oc1ccccc1)C(C)C` (stereo not shown) [Cmpd 1095], the “LV activity at 125.1 g/H PUCCRT 1DP (disease control rating)” value in test [1] (setting [3]) is reported as “B (≤ 80)”. Also, the “LV activity at 125.1 g/H PUCCRT 3DC (disease control rating)” value in test [1] (setting [4]) is “B (≤ 80)”. In addition, the “LV activity at 125.1 g/H SEPTTR 1DP (disease control rating)” value in test [2] (setting [5]) is “D”. Also, the “LV activity at 125.1 g/H SEPTTR 3DC (disease control rating)” value in test [2] (setting [6]) is “D”.

`COc1ccnc(C(=O)N[C@@H](C)C(=O)O[C@@H](C)[C@H](Oc2ccc(F)cc2)C2CCCC2)c1O` [Cmpd 840]: in test [1] (100 ppm), the “PUCCRT 1DP disease control rating, HV activity at 100 ppm” value is “A (> 80)” and the “PUCCRT 3DC disease control rating, HV activity at 100 ppm” value is “A (> 80)”. Further, in test [2] (100 ppm), the “SEPTTR 1DP disease control rating, HV activity at 100 ppm” value is given as “B (≤ 80)” and the “SEPTTR 3DC disease control rating, HV activity at 100 ppm” value was “A (> 80)”.

Take `C=CC[C@@H](OCC(=C)C)[C@H](C)OC(=O)[C@H](C)NC(=O)c1nccc(OC)c1O` [Cmpd 1019]: in test [1] (100 ppm), the “PUCCRT 1DP disease control rating, HV activity at 100 ppm” value is reported as “A (> 80)” and the “PUCCRT 3DC disease control rating, HV activity at 100 ppm” value is “A (> 80)”. Also, in test [2] (100 ppm), the “SEPTTR 1DP disease control rating, HV activity at 100 ppm” value is “B (≤ 80)” and the “SEPTTR 3DC disease control rating, HV activity at 100 ppm” value is “A (> 80)”.

Regarding `C=CC[C@@H](Oc1ccc(F)cc1F)[C@H](C)OC(=O)[C@H](C)NC(=O)c1nccc(OC)c1OC(C)=O` [Cmpd 1081], the “LV activity at 125.1 g/H PUCCRT 1DP (disease control rating)” value in test [1] (setting [3]) is “A (> 80)”. The “LV activity at 125.1 g/H PUCCRT 3DC (disease control rating)” value in test [1] (setting [4]) is listed as “B (≤ 80)”. In addition, in test [2] (setting [5]), the “LV activity at 125.1 g/H SEPTTR 1DP (disease control rating)” value is listed as “D”. Besides, the “LV activity at 125.1 g/H SEPTTR 3DC (disease control rating)” value in test [2] (setting [6]) was “D”.

For `COc1cccc(O[C@@H]([C@H](C)OC(=O)[C@H](C)NC(=O)c2nccc(OC)c2O)C(C)(C)C)c1` [Cmpd 1015], in test [1] (100 ppm), the “PUCCRT 1DP disease control rating, HV activity at 100 ppm” value was “A (> 80)” and the “PUCCRT 3DC disease control rating, HV activity at 100 ppm” value is reported as “A (> 80)”. For the same compound, in test [2] (100 ppm), the “SEPTTR 1DP disease control rating, HV activity at 100 ppm” value is on record as “B (≤ 80)” and the “SEPTTR 3DC disease control rating, HV activity at 100 ppm” value is “B (≤ 80)”.

`CCCOC(CC)C(Oc1ccccc1)C(C)OC(=O)C(NC(=O)c1nccc(OC)c1OCOC(C)=O)C(C)CC` (stereo not shown) [Cmpd 449]: the “PUCCRT 1DP disease control rating, HV activity” value in test [1] (setting [3]) is “A (> 80)”. Further, the “PUCCRT 3DC disease control rating, HV activity” value in test [1] (setting [4]) is recorded as “A (> 80)”. Further, the “SEPTTR 1DP disease control rating, HV activity” value in test [2] (setting [5]) is “A (> 80)”. In addition, the “SEPTTR 3DC disease control rating, HV activity” value in test [2] (setting [6]) is “B (≤ 80)”.

For the compound `CCC(CC)[C@@H](Oc1cccc(-c2ccccc2)c1)[C@H](C)OC(=O)[C@H](C)NC(=O)c1nccc(OC)c1OC(C)=O` [Cmpd 606], the “PUCCRT 1DP, LV activity at 125.1 g/H (% Control rating)” value in test [1] (1 Day Protectant) was “A (> 80)”. Further, the “PUCCRT 3DC, LV activity at 125.1 g/H (% Control rating)” value in test [1] (3 Day Curative) is “B (≤ 80)”. Besides, the “SEPTTR 1DP, LV activity at 125.1 g/H (% Control rating)” value in test [2] (1 Day Protectant) is recorded as “A (> 80)”. In test [2] (3 Day Curative), the “SEPTTR 3DC, LV activity at 125.1 g/H (% Control rating)” value is on record as “B (≤ 80)”.

As to `CCCOC(CC)C(Oc1ccccc1)C(C)OC(=O)C1(NC(=O)c2nccc(OC)c2O)CC1` (stereo not shown) [Cmpd 416], the “PUCCRT 1DP disease control rating, HV activity” value in test [1] (setting [3]) is recorded as “B (≤ 80)”. The “PUCCRT 3DC disease control rating, HV activity” value in test [1] (setting [4]) is recorded as “D”. Also, in test [2] (setting [5]), the “SEPTTR 1DP disease control rating, HV activity” value is recorded as “B (≤ 80)”. Also, in test [2] (setting [6]), the “SEPTTR 3DC disease control rating, HV activity” value is “D”.

The values are drawn from US20180000085A1, “USE OF PICOLINAMIDE COMPOUNDS WITH FUNGICIDAL ACTIVITY” (DOW AGROSCIENCES LLC, priority 2014, published 2018).
